Results from patent publication US6475801B1, “Anticoagulant and hemanalysis method” (Sysmex Corporation, priority 1998, dated 2002).

Key:
platelets [1] = experiment: Examination on cold agglutination (platelet counting after cold storage); format: cell-based, human
Procedure: Blood samples to which CTAD of the present invention or EDTA-2K was added were subjected to the platelet counting in order to compare them with regard to cold agglutination (the pseudothrombocytopenia in cold storage). […]

platelets [2] = experiment: Examination on EDTA-dependant pseudothrombocytopenia (platelet counting); format: cell-based, human; conditions: FIG. 1
Procedure: Blood samples to which CTAD of the present invention or EDTA-2K was added were subjected to the platelet counting in order to compare them with regard to the EDTA-dependant Pseudothrombocytopenia.

platelets [3] = experiment: Change with time in the mean platelet volume (MPV); format: cell-based, human; conditions: FIG. 2
Procedure: Blood samples to which CTAD of the present invention or EDTA-2K was added were compared with regard to change with time in the size of platelets.

blood coagulation = experiment: Blood coagulation tests (CA-1000), Example 1 A; design: species or system human; conditions: mean of four normal samples
Text: Blood was collected into test tubes containing the anticoagulant (CTAD) prepared as above and subjected to blood cell count tests (leukocyte count (WBC), ratios of leukocytic components (neutrophil ratio (NEUT%), lymphocyte ratio (LYMPH%), monocyte ratio (MONO%), eosinophil ratio (EOSI%) and basophil ratio (BASO%)), erythrocyte count (RBC), hemoglobin concentration (Hgb), hematocrit (Hct), MCV, MCH, MCHC and platelet count (PLT))(used counter: SE-9000™ produced by Sysmex Corporation, Japan) and coagulation tests (prothrombin time (PT), activated partial thromboplastin time (APTT), fibrinogen determination (Fbg))(used tester:CA-1000 produced by Sysmex Corporation, Japan).
EDTA-2K (Venoject II™ or 5 ml produced by Terumo), 5 mg, was used as a control for the blood cell count tests and a 3.8% solution of sodium citrate (3.8% solution of sodium citrate for 5 ml produced by Terumo, Japan), 0.5 ml, was used as a control for the blood coagulation tests, respectively, in place of the above anticoagulant.
The tests were conducted with four normal samples, and mean values are calculated.

O=C([O-])CN(CCN(CC(=O)O)CC(=O)O)CC(=O)[O-].[K+].[K+] [EDTA-2K]
decrease of platelets in cold storage (platelets [1]; 4° C., eight hours after collected): Platelets decreased
PLT (platelet count) (platelets [1]; 37° C. (control)): 17.6 ×10^4
PLT (platelet count) (platelets [1]; preserved at 4° C., examined eight hours after collected): 9.0 ×10^4
change with time in the number of platelets (platelets [2]): decreased with time
change with time in the size of platelets (mean platelet volume) (platelets [3]): grew in size with time

O=C([O-])CC(O)(CC(=O)[O-])C(=O)[O-].[Na+].[Na+].[Na+] [sodium citrate]
APTT (activated partial thromboplastin time) (blood coagulation): 28.6 s
Fbg (fibrinogen determination) (blood coagulation): 9.8 s
PT (prothrombin time) (blood coagulation): 9.5 s
